Legend:
[1] = system: control osteosarcoma cells and LHON mutant (11778 G>A) cells; assay: Validation of complex I-driven ATP synthesis assay with substrates and inhibitors of mitochondrial complexes; format: cell-based; settings: inhibitor at 1 μM; malate/pyruvate substrates; permeabilized cells
Source text: The data is presented as ATP synthesis rate+standard deviation from one representative experiment.

[2] = system: 11778(G>A) mutant cybrids; assay: Effect of rotenone on complex I-driven ATP synthesis in mutant vs control osteosarcoma cybrids; format: cell-based
Source text: (§1) The data is presented as average+standard deviation from three independent experiments and single asterisk signifies the statistical significance (P<0.05) between the control and LHON mutant cells.
Among the various LHON-associated mutations, 11778(G>A) mutation encoding ND4 subunit of mitochondrial complex I is the most prevalent and the most severe (Oostra et al., J Med Genet, 1994, 31, 280-286). It has been previously hypothesized that some external stress factors are responsible for the precipitation of vision loss in LHON (Chalmers et al., Biochimica et Biophysica Acta, 1999, 1410, 147-158). To understand the 11778(G>A) mutant mitochondrial functionality under stress, we evaluated the effect of a complex I inhibitor on complex I-driven ATP synthesis using an osteosarcoma cybrid model (FIG. 11A).
Measurement of complex I-driven ATP synthesis: The cybrid cells were seeded at 50000 cells/well in 100 μL of medium, in a white, opaque-bottom, 96-well plate coated with poly-D-lysine (Corning) and was incubated at 37° C. overnight. […] After 2 hr incubation at 37° C., the medium from the plates were aspirated using an automatic plate washer (Biotek) and complex I-driven ATP synthesis was measured following the protocol of Yoshida and Fujikawa (Fujikawa et al., Biochemical and Biophysical Research Communications, 2010, 401, 538-543). […]

[3] = system: 11778 (G>A) mutant lymphoblasts; assay: Effect of rotenone on complex I-driven ATP synthesis in lymphoblasts; format: cell-based; settings: gender-matched lymphoblasts
Method: as §1
For the lymphoblasts, drug-treated cells were centrifuged and resuspended at a concentration of 2×10^6 cells/mL, in the permeabilization buffer containing activated streptolysin O (Sigma). After 10 min incubation at 4° C., the cells were centrifuged and resuspended in transfer buffer at the same concentration. The cells were then incubated at 37° C. for 10 min followed by centrifugation and resuspension in buffer A containing malate (5 mM, Sigma), sodium pyruvate (5 mM, Sigma) and high purity ADP (200 μM, Apollo Scientific). Subsequently, 50 μL of buffer A containing 100,000 cells were plated in each wells of a 96-well plate. After 20 min of incubation at the room temperature the complex I-driven ATP synthesis was measured by using ATP Bioluminescence Assay Kit CLS II (Roche) following manufacturer's instruction.

[4] = system: inflammatory genes in retinas of Ndufs4 KO mice; assay: qRT-PCR of inflammatory genes in retinas after rapamycin treatment (Example 1); format: in vivo, mouse; settings: rapamycin 8 mg/kg intraperitoneally for 9 days
Method: FIG. 6 depicts an experimental reversal of inflammatory gene induction by rapamycin. White bars, a mean increase in transcript level of 16/16 inflammatory markers was observed by qRT-PCR in retinas of Ndufs4 KO mice compared to wild type. […] Statistical significance determined by student's t test. * P<0.05, ** P<0.01.
Rapamycin was dissolved in DMSO to 100 mg/mL. This was diluted in 5% PEG-400/5% Tween-20 (vehicle) to a concentration of 0.6 mg/mL, sterile filtered, and stored at −80 for long-term storage. Rapamycin treated mice were injected with 132 microliters/10 g body weight for a final dose of 8.0 mg/kg (Johnson et al., Science, 2013, 342, 1524-1528). Vehicle mice were injected with equal volume of PBS and DMSO lacking rapamycin. […]
The change in PCR products as the reaction proceeded was monitored by SYBR green dye (Invitrogen, Grand Island, N.Y.). […] Quantification cycle (Cq) values obtained by the Lightcycler were analyzed by normalizing the values to the reference genes and delta Cq values were calculated to determine relative gene expression values compared to wild type. Delta delta Cq was also calculated to determine the fold change difference between Ndufs4 knockout and wild type. Significance, p<0.05 was determined using two sample independent student's t-test statistics with equal sample size and assuming equal variance.

[5] = system: control healthy cybrid; assay: Mitochondrial copy number (MT-TL1/B2M ratio), control cybrids; format: cell-based; settings: control cells; 24 hrs exposure
Method: (§2) FIGS. 14A-14C illustrate the effect of drugs on the mitochondrial copy number. Difference of mitochondrial copy number between 11778 (G>A) mutant and control cybrids (FIG. 14A). Effect of zolpidem and papaverine on the control healthy cybrid mitochondrial copy number (FIG. 14B) and 11778 (G>A) mutant cybrid mitochondrial copy number (FIG. 14C). Cells were treated with either vehicle or one of the drugs at specified concentration for 24 h. The cells were harvested after 24 h and the ratio between MT-TL1 and B2M was determined. Data is presented as average relative fold change±std. deviation from three independent observations. Statistical significance (p<0.05) is denoted by ‘*’ and was determined by one way ANOVA and Dunett's post hoc test.

[6] = system: 11778 (G>A) mutant cybrid; assay: Mitochondrial copy number (MT-TL1/B2M ratio), mutant cybrids; format: cell-based; settings: LHON mutant cells [11778(G>A)]; 24 hrs exposure
Method: as §2

[7] = system: Ndufs4 KO mice; assay: Starburst amacrine cell count (ChAT staining of whole retina); format: in vivo, mouse; settings: two weeks (P21-P35) intraperitoneal injections
Method: 20× confocal images of whole retina stained with ChAT (marker of starburst amacrine cells) from wild type (FIG. 22A), Ndusf4 KO vehicle treated (FIG. 22B), Ndufs4 KO papaverine treated (FIG. 22C), Ndufs4 KO zolpidem treated (FIG. 22D), and Ndufs4 KO rapamycin treated (FIG. 22E) are shown.
(§3) Wild type and Ndufs4 knockout mice were placed in one of five groups: vehicle, papaverine (20 mg/kg), zolpidem (20 mg/kg), rapamycin (8 mg/kg), or idebenone (200 mg/kg). For papaverine, zolpidem, and rapamycin, drug was dissolved in DMSO which was diluted in 5% PEG-400/5% Tween-20 in PBS. Vehicle contained all components except for the drug. The solution was then sterile filtered and intraperitoneal injections were performed using a 30 gauge needle. Idebenone was administered as a jelly and consumed orally.

[8] = system: Ndufs4 KO mice; assay: Microglia activation (Iba1 staining of whole mount retinas); format: in vivo, mouse; settings: two weeks (P21-P35) intraperitoneal treatment
[9] = system: innate immune/inflammatory response in Ndufs4 KO retina; assay: Retinal gene expression of innate immune and inflammatory markers after drug treatment (Example 3); format: in vivo, mouse; settings: Ndufs4 KO mice; doses as in drug formulation
Method: The graphs represent RNA expression of B2m (FIG. 21A), Tlr2 (FIG. 21B), Cxc110 (FIG. 21C), Cc15 (FIG. 21D), and Aif1 (FIG. 21E) in the wild type and Ndufs4 knockout retina. Bars represent mean delta Ct values normalized to housekeeping genes, Actb and Mapk1. Error bars represent standard error of the mean. Statistical significance was determined by two-tailed student's t test. * P<0.05, ** P<0.01, **** P<0.0001.
as §3
We have previously shown that inflammatory gene expression of Aif1, Tlr2, B2m, Cc15, and Cxc110 are all elevated in the Ndufs4 KO mouse compared to wild type by more than 3-fold, indicating an inflammatory pathomechanism of mitochondrial blindness (Yu et al., Proc Natl Acad Sci USA, 2015, 112(42): E5689-98). […] Papaverine, zolpidem, rapamycin, and idebenone were administered to Ndufs4 KO mice to determine whether their protection of vision (FIG. 20) was through an anti-inflammatory mechanism of action. […] Thus, papaverine, zolpidem, and rapamycin appear to protect mitochondrial loss of vision through an antiinflammatory mechanism.

[10] = system: LHON cybrids (11778 G>A); assay: Complex I-driven ATP synthesis in rotenone-inhibited LHON mutant cybrids (luciferase-based, high-throughput screen and concentration-response); format: cell-based
[11] = system: Ndufs4 knockout mice; assay: Visual cliff test; format: in vivo, mouse; settings: P21-P35 treatment; papaverine 20 mg/kg, zolpidem 20 mg/kg, rapamycin 8 mg/kg i.p.; idebenone 200 mg/kg oral
[12] = system: permeabilized LHON mutant (11778 G>A) cells; assay: Complex I-driven ATP synthesis, drug applied to permeabilized LHON mutant cells; format: cell-based; settings: permeabilized cells (30 min) instead of intact cells (2 h); rotenone 0.03 μM
Method: Cells were permeabilized with streptolysin O and mitochondrial complex I-driven ATP synthesis was measured in presence of complex I substrates (malate/pyruvate). […] Intact cells were permeabilized with streptolysin O and mitochondrial complex I-driven ATP synthesis was measured in presence of complex I substrates (malate/pyruvate).

[13] = system: control cybrids; assay: Papaverine response in rotenone-inhibited control cybrids; format: cell-based
Source text: FIG. 19A depicts response to papaverine in control cybrids. FIG. 19B depicts response to papaverine in mutant cybrids.

## C=C(C)[C@H]1Cc2c(ccc3c2O[C@@H]2COc4cc(OC)c(OC)cc4[C@@H]2C3=O)O1 [rotenone]
[1]
  mitochondrial ATP synthesis: inhibited the mitochondrial ATP synthesis
[2]; 3 most common LHON mutations in cybrids
  rotenone-dependent ATP synthesis defect across 11778, 3460 and 14484 mutant cybrids: directly in proportion to the severity of the disease in humans
[2]; rotenone 0.001 μM-1 μM, 24 h, mutant clones HCT22, HFF3 vs control HGA2, H1959
  sensitivity of complex I-driven ATP synthesis to rotenone: highly sensitive to rotenone when compared to control
[3]
  differential effect of rotenone on mutant vs control ATP synthesis: clearly reproducible

## CO[C@H]1C[C@@H]2CC[C@@H](C)[C@@](O)(O2)C(=O)C(=O)N2CCCC[C@H]2C(=O)O[C@H]([C@H](C)C[C@@H]2CC[C@@H](O)[C@H](OC)C2)CC(=O)[C@H](C)/C=C(\C)[C@@H](O)[C@@H](OC)C(=O)[C@H](C)C[C@H](C)/C=C/C=C/C=C/1C [rapamycin]
[4]
  transcripts with inhibition of mean amplitude of induction of inflammatory genes: 16/16

## COc1ccc(Cc2nccc3cc(OC)c(OC)cc23)cc1OC [papaverine]
[5]
  ratio of mtDNA/nDNA: did not significantly change the ratio of mtDNA/nDNA
[6]
  ratio of mtDNA/nDNA: did not significantly change the ratio of mtDNA/nDNA
[7]
  starburst amacrine cell loss: less cell loss than vehicle-treated Ndufs4 KO mice
[8]
  microglia activation: significant inhibition of microglia activation
[9]
  innate immune/inflammatory gene expression (B2m, Tlr2, Cxcl10, Ccl5, Aif1) in retina: significantly inhibited a portion of the innate immune/inflammatory response
[10]; 20 h, read-out: Fold change of ATP synthesis rate greater than 2x Median Absolution Deviation
  fold induction at 10 µM: 2.4
[10]; different concentrations of drug 22 h, then rotenone 0.03 μM 2 h
  reversal of rotenone sensitivity of complex I-driven ATP synthesis: dose-dependently reversed the rotenone sensitivity
[10]; intact cells treated with papaverine and rotenone 0.03 μM for 2 hrs
  protective effect with short treatment of intact cells: protective effect of papaverine was observed
[10]; papaverine vs zolpidem
  concentration-dependent reversal of rotenone-induced ATP synthesis inhibition, comparison of the two hits: stronger than Zolpidem
[11]
  visual function (median # edge detections): visual function was preserved
[12]
  complex I driven ATP production in permeabilized cells: inhibited complex I driven ATP production
[13]
  complex 1-dependent ATP synthesis in normal cells inhibited by rotenone: dose dependently stimulates complex 1-dependent ATP synthesis

From patent publication US10792287B2, “Methods for treating mitochondrial diseases” (The Regents of the University of California, priority 2015, dated 2020)
